US12378222B2, “NLRP3 inflammasome inhibitors” (Novartis AG, priority 2022, dated 2025)

Columns and labels:
Assay type in all cases: cell-based
[1] = target: T1, alpha-subunit of the hERG channel (Homo sapiens, UniProt Q12809); assay: hERG electrophysiological inhibition assay using the Qube technology (automated patch clamp, CHO cells)
T1 construct: expressed in transfected cells; host or cells: CHO (T-REX) cells, tetracycline-induced
Experimental: (§1) Chinese hamster ovary (CHO) cell line, overexpressing the alpha-subunit of the hERG channel under the control of tetracycline-regulated promoter, was created using commercially available T-REX™ system (Invitrogen). CHO (T-REX™) hERG cells were maintained in Ham's F-12 nutrient medium (Life Tech) supplemented with 10% fetal bovine serum (HyClone), 1% penicillin-streptomycin, 10 μg/mL Blasticidin and 50 μg/mL Zeocin (all from Life Technologies, Thermo Fisher Scientific). For hERG expression induction, 1 μg/ml tetracycline (Sigma-Aldrich) was added to the growth media 24 hours before the current recording. To prepare the cell suspension for Qube experiments, cells were dislodged from culture flask by incubation in Detachin (Genlantis) at 37° C. for approximately 5 min, and resuspended in CHO serum free media (CHO-SFM II, Life Technologies) at a density of 2-3 million cells per mL.
(§2) Patch clamp experiments were performed on the Qube APC (automated patch clamp) platform (Sophion Bioscience A/S, Ballerup, Denmark) using the 384X 10-hole chip at 35° C. Intracellular KF-Ringer's solution consisted of (in mM) 120 KF, 20 KCl, […] ethylene glycol-bis(2-aminoethylether)-N,N,N′,N′-tetraacetic acid (EGTA) and 10 (4-(2-hydroxyethyl)-1-piperazineethanesulfonic acid (HEPES), pH at 7.2 with KOH. Extracellular solution consisted of (in mM) 145 NaCl, 4 KCl, 2 CaCl2, 1 MgCl2, 10 HEPES, 10 Glucose and 0.3% dimethyl sulfoxide (DMSO), pH at 7.4 with NaOH. The hERG current was elicited by applying the following voltage protocol: cells are held at −90 mV resting membrane potential for 100 msec, then clamped at −50 mV for 100 msec for leak estimation, depolarized to +20 mV for 4 sec (peak current measurement) and finally repolarized to −50 mV for 4 sec (tail current recording) before returning to the holding potential of −90 mV. The data are sampled at 10 KHz, with cutoff at 2 kHz, and filtered using the Bessel filter. The protocol was repeated every 15 s, 30 times before and 30 times after a compound application.
All compounds were prepared as 10 mM stock in 100% DMSO, then serially dilutes 1:3 down in Labcyte 384-well Echo Qualified LDV (low […] volume) microplate. The Qube assay plate was prepared by transferring 0.15-0.3 μL of a compound from the serial dilution plate to the 384-well Greiner plate using Labcyte Echo 650 liquid handler (Beckman). Right before the experiment, the compounds in each well were further diluted in extracellular solution using Biomek i7 liquid handler (Beckman) to create the final concentrations of 0.37, 1.1, 3.3, 10, 15 and 30 μM (1:333 dilution to keep the final DMSO concentration in all samples ≤0.3%). Amitriptyline hydrochloride (positive control) and DMSO (0.3%, vehicle control) were included in each plate.
(§3) The results were initially reviewed using the Qube specific Sophion Analyzer software (Sophion Bioscience), then analyzed using Data Analysis and Visualization in Discovery (DAVID) software package (Novartis AG). The compound effect on hERG current inhibition (normalized percentage of inhibition) was calculated as % Inh=(Icompound−Ivehicle)/Ivehicle*−100, where Icompound and Ivehicle are the averages of the last three leak-corrected tail hERG currents […] a compound application, respectively. […]

hERG [2] = target: T2, hERG (Homo sapiens, UniProt Q12809); assay: hERG channel test using the QPatch technology (automated patch clamp, CHO cells); parameters: host or cells: CHO cells; conditions: for inhibition at 4 min, 30 µM: human, CHO cells stably expressing hERG channels, pH 7.4, highest test concentration 30 μM
T2 sequence (Q12809 whole entry): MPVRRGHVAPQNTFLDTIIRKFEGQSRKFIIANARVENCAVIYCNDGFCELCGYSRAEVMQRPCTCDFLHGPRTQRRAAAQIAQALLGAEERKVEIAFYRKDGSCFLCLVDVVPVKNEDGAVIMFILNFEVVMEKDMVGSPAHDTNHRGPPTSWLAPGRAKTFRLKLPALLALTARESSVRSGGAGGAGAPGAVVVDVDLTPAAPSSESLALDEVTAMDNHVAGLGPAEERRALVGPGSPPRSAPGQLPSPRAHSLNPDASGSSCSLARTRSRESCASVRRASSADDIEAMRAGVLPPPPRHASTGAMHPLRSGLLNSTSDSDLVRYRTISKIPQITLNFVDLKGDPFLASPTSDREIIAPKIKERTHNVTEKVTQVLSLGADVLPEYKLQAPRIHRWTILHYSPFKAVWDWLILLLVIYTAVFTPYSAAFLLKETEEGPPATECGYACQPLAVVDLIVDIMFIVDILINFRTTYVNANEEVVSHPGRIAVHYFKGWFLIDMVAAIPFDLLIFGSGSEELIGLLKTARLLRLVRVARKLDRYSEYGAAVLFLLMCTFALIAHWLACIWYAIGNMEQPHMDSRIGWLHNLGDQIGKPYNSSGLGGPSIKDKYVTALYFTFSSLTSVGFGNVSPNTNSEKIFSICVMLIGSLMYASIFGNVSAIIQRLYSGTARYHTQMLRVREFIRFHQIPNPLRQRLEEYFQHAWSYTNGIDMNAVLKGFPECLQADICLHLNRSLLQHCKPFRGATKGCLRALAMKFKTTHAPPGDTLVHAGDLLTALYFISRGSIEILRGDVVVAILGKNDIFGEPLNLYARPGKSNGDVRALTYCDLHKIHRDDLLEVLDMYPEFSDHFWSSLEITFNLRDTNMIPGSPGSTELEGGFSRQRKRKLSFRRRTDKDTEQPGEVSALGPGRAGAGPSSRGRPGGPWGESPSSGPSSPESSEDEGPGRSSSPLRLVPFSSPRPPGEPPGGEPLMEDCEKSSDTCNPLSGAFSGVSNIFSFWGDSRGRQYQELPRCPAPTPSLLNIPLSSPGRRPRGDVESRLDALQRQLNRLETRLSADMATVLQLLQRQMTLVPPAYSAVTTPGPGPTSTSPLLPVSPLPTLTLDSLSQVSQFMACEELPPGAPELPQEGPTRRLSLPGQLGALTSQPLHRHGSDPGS
Experimental: CHO cells (AVIVA Biosciences Corp, San Diego, CA) stably expressing hERG channels were patched using a QPatch-HT automated patch clamp instrument (Sophion Bioscience A/S, Ballerup, Denmark) in single hole mode. The intracellular solution consisted of 120 mM KCl, 5 mM CaCl2, 2 mM MgCl2, 10 mM ethylene glycolbis (2-aminoethylether)-N,N,N′,N′-tetraacetic acid (EGTA), 10 mM (4-(2-hydroxyethyl)-1-piperazineethanesulfonic acid (HEPES), and 4 mM dipotassium adenosine-5′-triphosphate (ATP-K2), pH adjusted to 7.2 using KOH. The extracellular solution consisted of 145 mM NaCl, 4 mM KCl, 2 CaCl2, 1 mM MgCl2, 10 mM HEPES, and 0.3% dimethyl sulfoxide (DMSO), adjusted to pH 7.4 using NaOH. All measurements were performed at room temperature, and the blockers were pre-incubated for 4 min. The cells were voltage clamped at −90 mV and the hERG current was activated using a voltage step to +20 mV for 4 s. The hERG tail currents were measured by stepping down to −50 mV for 4 s before returning to −90 mV. This protocol was repeated every 20 s. The peak hERG current was automatically corrected by subtracting the leak current, which was estimated by measuring the mean current during a short depolarizing step to −50 mV from the resting membrane potential just prior to the long depolarizing step to • +20 mV at the beginning of the voltage protocol. Test articles were diluted using DMSO stock solutions and the extracellular solution. […] The effect of the test article on the hERG tail current was assessed and 1, 10 and 30 μM and a positive control (amitriptiline, 1, 3 and μM) was included on each plate.

[3] = test system: Pam3CSK4-stimulated, NF-κB-dependent TNF-α secretion; assay: TNF-α secretion assay (counter screen, THP-1 cells, HTRF); conditions: Homo sapiens, undifferentiated THP-1 cells, 3 h, at least 2 replicates
Experimental: Monocytic THP-1 cells were maintained according to providers' instructions in RPMI media as described above. Undifferentiated cells were plated at 50,000 cells per well in a 384-well flat-bottom cell culture plates (Greiner, #781986), and allowed to rest overnight. Experimental compounds were prepared and added as described above. TNF-α secretion was triggered by the addition of either 1 μg/mL LPS (Sigma, #L4391) or 100 ng/ml Pam3CSK4 (Invivogen, #tlrl-pms) depending on the experiment, and cells were incubated for 3 h. 10 μL supernatant was removed, and TNF-α levels were monitored using an HTRF assay (CisBio, #62TNFPEC) according to manufacturers' instructions. Viability was monitored as
IC50 values were calculated from the plot of percentage of inhibition versus the inhibitor concentration by a logistics fit according to: y=A2+(A1−A2)/(1+(x/IC50)^p) where y is the %-inhibition at the inhibitor concentration, x. A1 is the lowest inhibition value, i.e. 0%, and A2 the maximum inhibition value, i.e. 100%. The exponent, p, is the Hill coefficient. The curve fitting was conducted with an internally developed software suite. NLRP3-dependent IL-1β secretion was stimulated in PMA-differentiated THP-1 cells by the addition of nigericin, and cytokines were measured in the […] after 3 h. As discussed above, activation of the NLRP3 inflammasome requires both an NF-κB-dependent priming step and the addition of a NLRP3 activator. […] Data for IL-1β secretion was calculated as the arithmetic mean of at least 3 individual experiments, and TNF-α secretion data was consistent across at least 2 individual replicates.

NLRP3 inflammasome = target: T3, NLRP3 inflammasome (Homo sapiens, UniProt Q96P20); assay: IL-1β secretion assay (nigericin-activated, PMA-differentiated THP-1 cells, HTRF); conditions: 15 μM nigericin, 3 h, arithmetic mean of at least 3 experiments
T3 construct: NLRP3-dependent IL-1β secretion was stimulated in PMA-differentiated THP-1 cells by the addition of nigericin; host or cells: THP-1 cells, PMA-differentiated
T3 sequence (Q96P20 whole entry): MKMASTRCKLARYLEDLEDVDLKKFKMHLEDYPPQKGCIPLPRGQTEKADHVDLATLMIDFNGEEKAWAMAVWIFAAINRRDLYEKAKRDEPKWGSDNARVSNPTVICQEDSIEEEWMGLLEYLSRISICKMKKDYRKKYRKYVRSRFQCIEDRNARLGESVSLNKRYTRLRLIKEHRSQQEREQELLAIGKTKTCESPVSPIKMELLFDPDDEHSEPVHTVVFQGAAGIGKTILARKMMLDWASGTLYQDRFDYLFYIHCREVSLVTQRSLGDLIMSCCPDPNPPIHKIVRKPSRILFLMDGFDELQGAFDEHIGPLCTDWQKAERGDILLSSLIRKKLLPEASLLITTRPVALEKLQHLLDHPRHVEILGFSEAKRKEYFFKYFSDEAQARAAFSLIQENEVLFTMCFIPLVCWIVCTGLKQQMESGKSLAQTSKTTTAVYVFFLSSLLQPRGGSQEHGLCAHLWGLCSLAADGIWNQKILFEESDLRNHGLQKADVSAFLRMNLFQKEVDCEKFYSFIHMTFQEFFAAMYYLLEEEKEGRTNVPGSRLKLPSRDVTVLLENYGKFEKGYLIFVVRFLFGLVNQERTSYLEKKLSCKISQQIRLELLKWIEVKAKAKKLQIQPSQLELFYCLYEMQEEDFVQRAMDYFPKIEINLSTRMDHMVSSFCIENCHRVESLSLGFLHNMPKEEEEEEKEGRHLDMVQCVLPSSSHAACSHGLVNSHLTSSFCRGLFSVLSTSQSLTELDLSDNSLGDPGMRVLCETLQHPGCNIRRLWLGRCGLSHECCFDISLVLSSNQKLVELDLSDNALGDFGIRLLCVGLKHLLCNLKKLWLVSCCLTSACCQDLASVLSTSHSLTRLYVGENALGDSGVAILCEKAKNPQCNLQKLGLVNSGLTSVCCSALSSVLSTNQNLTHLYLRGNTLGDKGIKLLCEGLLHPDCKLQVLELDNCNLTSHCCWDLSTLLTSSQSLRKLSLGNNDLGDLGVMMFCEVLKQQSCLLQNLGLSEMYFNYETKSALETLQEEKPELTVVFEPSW
Experimental: Monocytic THP-1 cells (ATCC: TIB-202) were maintained according to providers' instructions in RPMI media (RPMI/Hepes+10% fetal bovine serum+Sodium Pyruvate+0.05 mM Beta-mercaptoethanol (1000× stock)+Pen-Strep). Cells were differentiated in bulk with 0.5 μM phorbol 12-myristate 13-acetate (PMA; Sigma #P8139) for 3 h, media was exchanged, and cells were plated at 50,000 cells per well in a 384-well flat-bottom cell culture plates (Greiner, #781986), and allowed to differentiate overnight. Compound in a 1:3.16 serial dilution series in DMSO was added 1:100 to the cells and incubated for 1 h. […] 10 μL supernatant was removed, and IL-1β levels were monitored using an HTRF (Homogeneous Time Resolved Fluorescence) assay (CisBio, #62IL1PEC) according to manufacturers' instructions.
IC50 values were calculated from the plot of percentage of inhibition versus the inhibitor concentration by a logistics fit according to: y=A2+(A1−A2)/(1+(x/IC50)^p) where y is the %-inhibition at the inhibitor concentration, x. […] NLRP3-dependent IL-1β secretion was stimulated in PMA-differentiated THP-1 cells by the addition of nigericin, and cytokines were measured in the serum after 3 h. […] Data for IL-1β secretion was calculated as the arithmetic mean of at least 3 individual experiments, and TNF-α secretion data was consistent across at least 2 individual replicates.

hERG [4] = target: T2, hERG; assay: hERG electrophysiological inhibition assay using the Qube technology (automated patch clamp, CHO cells); parameters: expressed in transfected cells; host or cells: CHO (T-REX) cells, tetracycline-induced; conditions: human, pH 7.4; 30 μM, CHO (T-REx) hERG cells, 35° C.
Experimental: as §1, §2
All compounds were prepared as 10 mM stock in 100% DMSO, then serially dilutes 1:3 down in Labcyte 384-well Echo Qualified LDV (low diamond volume) microplate. […]
as §3

[5] = CHO (T-REx) hERG cells, 35° C., tail current
[6] = CHO cells stably expressing hERG, room temperature

T1 sequence (Q12809 whole entry): as the sequence (Q12809 whole entry) above

Q: What does the source list for `Cc1cc(C(F)(F)F)cc(O)c1-c1cc(CO)c(N[C@@H]2CCCN(C)C2)nn1` [Example 1, (R)-2-(5-(hydroxymethyl)-6-((1-methylpiperidin-3-yl)amino)pyridazin-3-yl)-3-methyl-5-(trifluoromethyl)phenol]?
A: IC50 [1, 5]: > 30 µM; hERG Qube IC50 compared with reference examples 1 and 2 ([1]; comparison in words): considerably increased; IC50 (hERG [2]; CHO cells stably expressing hERG, room temperature, tail current, tested at 1, 10 and 30 μM): > 30 µM; hERG QPatch IC50 compared with reference examples 1 and 2 (hERG [2]; comparison in words): considerably increased; inhibition at 4 min, 30 µM (hERG [2]; [6]): 24.3%; IC50 [3]: > 100 µM; IC50 (NLRP3 inflammasome): 0.00072 µM; inhibition at 7.5 min, 30 µM (hERG [4]): 40.9%

Q: What does the source list for `Cc1cc(-c2c(C)cc(C(F)(F)F)cc2O)nnc1N[C@@H]1CCCN(C)C1` [Reference ex. 1, (R)-3-Methyl-2-(5-methyl-6-((1-methylpiperidin-3-yl)amino)pyridazin-3-yl)-5-(trifluoromethyl)phenol]?
A: IC50 ([1]; unit inferred): 4.71 µM; inhibition at 4 min, 30 µM (hERG [2]; [6]): 64.7%; IC50 (hERG [2]; unit inferred): 13.1 µM; IC50 [3]: > 33 µM; inhibition at 7.5 min, 30 µM (hERG [4]): 77.9%

Q: How did the IC50 ([1]; unit inferred) turn out when `Cc1cc(C(F)(F)F)cc(O)c1-c1cc(C(F)(F)F)c(N[C@@H]2CCCN(C)C2)nn1` [Reference ex. 2, (R)-3-methyl-2-(6-((1-methylpiperidin-3-yl)amino)-5-(trifluoromethyl)pyridazin-3-yl)-5-(trifluoromethyl)phenol] was run?
A: The IC50 was 5.62 µM.

Q: What about the inhibition at 4 min, 30 µM (hERG [2]; [6]) of the same molecule?
A: The inhibition at 4 min, 30 µM was 93.6%.

Q: What about the IC50 (hERG [2]; unit inferred) of the same molecule?
A: The IC50 was 3.9 µM.

Q: What about the IC50 [3] of the same molecule?
A: Its IC50 is greater than 100 µM.

Q: What about the inhibition at 7.5 min, 30 µM (hERG [4]) of the same molecule?
A: The inhibition at 7.5 min, 30 µM was 74.9%.

Q: Which IC50 [1, 5] does the source give for `Cc1cc(C(F)(F)F)cc(O)c1-c1nnc(N[C@@H]2CCCN(C)C2)c2c1COC2` [Reference ex. 3, 3-methyl-2-(4-(((R)-1-methylpiperidin-3-yl)amino)-5,7-dihydrofuro[3,4-d]pyridazin-1-yl)-5-(trifluoromethyl)phenol] here?
A: The IC50 was greater than 30 µM.

Q: What about the IC50 [3] of the same molecule?
A: Its IC50 is greater than 100 µM.

Q: And the IC50 (NLRP3 inflammasome)?
A: Its IC50 is 0.0037 µM.

Q: And the inhibition at 7.5 min, 30 µM (hERG [4])?
A: The inhibition at 7.5 min, 30 µM was 49.8%.
